Measured values taken from US20210395235A1, “COMPOUND AS TGF-beta R1 INHIBITOR AND APPLICATION THEREOF” (NANJING SANHOME PHARMACEUTICAL CO., LTD., priority 2018, published 2021).

How the values were obtained:
[1] = animal models; cited from earlier work
ALK5 = molecular target: T1, ALK5 (Homo sapiens, UniProt P36897); experiment: In vitro activity against ALK5 kinase (ADP-Glo Kinase Assay); assay type: biochemical; conditions: 28° C. 120 minutes
T1 construct: purchased Carna 09-141
T1 sequence (P36897 162-503 limits assumed): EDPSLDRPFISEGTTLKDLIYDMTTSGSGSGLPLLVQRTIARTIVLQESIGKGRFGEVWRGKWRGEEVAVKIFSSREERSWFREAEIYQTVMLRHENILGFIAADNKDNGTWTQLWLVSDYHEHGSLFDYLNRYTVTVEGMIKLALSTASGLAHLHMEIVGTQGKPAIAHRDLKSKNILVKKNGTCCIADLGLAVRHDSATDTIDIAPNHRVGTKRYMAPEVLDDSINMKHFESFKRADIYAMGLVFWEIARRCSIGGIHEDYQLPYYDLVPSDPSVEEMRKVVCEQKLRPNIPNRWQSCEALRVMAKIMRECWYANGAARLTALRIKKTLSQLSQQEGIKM
Experimental: For the compounds of the present disclosure prepared in the above examples, each compound was prepared into 10 mM with DMSO, and then diluted to 3.333 μM, 1.111 μM, 370 nM, 123 nM, 41 nM, 14 nM, 4.6 nM, 1.5 nM and 0.5 nM successively.
Reagents: ALK5, Cat. No. 09-141, purchased from Carna; p38α, Cat. No. 04-152, purchased from the Carna; TGFβR1 peptides, Cat. No. T36-58, purchased from SignalChem; dimethyl sulfoxide (DMSO), purchased from Sigma, US; EDTA, purchased from Sigma, US; and ADP-Glo Kinase Assay, Cat. No. v9102/3, 1×Kinase buffer (40 mM Tris, pH7.5, 0.10% BSA, 20 mM MgCl2, 1 mM DTT), purchased from Promega, and prepared immediately before use.
2.2.1.1 Preparation of 50-fold compounds: The compounds were prepared into 500 μM, 50-fold concentration as the final concentration 10 μM for detecting the compounds, which was performed as following: into a second well of a 96-well plate, 95 μl of 100% DMSO was added, and then 5 μl of the 10 mM compound solution was added, to prepare a […] compound solution; into other wells, 60 μl of 100% DMSO was added; from the second well, 30 μl of the compound was drawn out and added into a third well; such 3-fold serial dilution was continued successively until 10 dilutions of concentration were made.
The kinase was added to a 1× kinase buffer, to form a 2× enzyme solution. 2.5 μl of the 2× enzyme solution was added to a 384-well reaction plate which already contained 100 nl of 100% DMSO-dissolved compound, to incubate at room temperature for 10 minutes.
FAM labeled peptides and ATP were added to the 1× kinase buffer, to form a 2× substrate solution. 2.5 μl of the 2× substrate solution was added to the 384-well reaction plate.
The 384-well plate was incubated at 28° C. for 120 minutes.
2.5.1 An ADP-Glo reagent was equilibrated to room temperature.
2.5.2 5 μl of the reaction solution was transferred into a reaction well at another new 384-well plate.
2.5.3 5 μl of the ADP-Glo reagent was transferred into the reaction well at the 384-well plate to stop the reaction.
2.5.4 An incubation was performed at 28° C. for 120 minutes.
2.5.5 10 μl of a kinase detection reagent was transferred into each reaction well, shaken for 1 minute, and was allowed to stand for 30 minutes at room temperature.
The luminescence value of the sample was read from Envision.
2.7.1 Luminescence reading data were copied from the Envision program.
2.7.2 The values of the luminescence reading were converted into the percent inhibition by the following formula.
Percent inhibition=(max−sample RLU)/(max−min)×100, where “min” stands for the fluorescence reading of the control sample with no enzyme added to the reaction; and “max” stands for the fluorescence reading of the sample with DMSO added as a control.
2.7.3 The date were imported into MS Excel and subjected to curve fitting using XLFit excel add-in version 5.4.0.8 and a fitting formula: Y=Bottom+(Top−Bottom)/(1+(IC50/X)^HillSlope).

[2] = tested on: TGFβ-ALK5-SMAD2/3 signaling pathway in Luc-Smad2/3-NIH3T3 cells; experiment: In vitro cell luciferase assay in Luc-Smad2/3-NIH3T3 cells stimulated with TGFβ1; assay type: cell-based; conditions: Mus musculus; TGFβ1 4 ng/mL, 2% FBS medium, luciferase chemiluminescence
Experimental: Test compounds: For the compounds of the present disclosure prepared in the above examples, each compound was prepared into 4 mM using DMSO. Then, a 4-fold serial dilution was made to obtain 20000.00 nM, 5000.00 nM, 1250.00 nM, 312.5 nM, 78.125 nM, 19.53 nM, 4.88 nM and 1.22 nM successively.
Luc-Smad2/3-NIH3T3 mouse fibroblasts (engineered to overexpress SMAD2,3-responsive promoter) were provided by a laboratory of China Pharmaceutical University.
Reagents: DMEM, purchased from Invitrogen, US; FBS, purchased from Invitrogen, US; DMSO, purchased from Sigma, US; Glo Lysis Buffer, purchased from Progema, US; Bright-Glo Luciferase assay system, purchased from Promega, US; and TGFβ, purchased from PeproTech, US.
Instruments: MD SpectraMaX M3 multifunctional enzyme reader, purchased from Molecular Devices, US.
Cell recovery: The cells were dissolved by placing in a […] water bath, then transferred to a 15 mL of pre-warmed culture medium, and centrifuged at 1000 rpm for 5 minutes. After the culture medium was discarded, the cells were resuspend in 15 mL of fresh culture medium, transferred to a 10 cm dish, and placed in an incubator at 37° C. with 5% CO2 for culture. After 24 hours, the culture medium for the cells was changed with a fresh culture medium.
Cell passage: The recovered cells were transferred to a 50 mL sterile centrifuge tube and centrifuged at 1000 rpm for 5 minutes. The culture medium was discarded. The evenly dispersed cells was counted, and adjusted to an appropriate cell concentration of 15 mL of fresh culture medium, added to a 10 cm dish, and placed in an incubator at 37° C. with 5% CO2 for culture.
Luc-Smad2/3-NIH3T3 cells were cultured normally in a 10 cm culture dish until the confluence reached 80%-90%. After digestion, they were collected in a 15 mL centrifuge tube, centrifuged at 1000×g for 5 minutes to remove the supernatant, and resuspended with 1 mL of medium, then diluted 10 times and counted. The cells was diluted according to the results from the count, and transferred into a 96-well plate at 4×10^3/cells per well (100 μl of resuspended cells was added in each well).
1-2 mg of the drug was weighed (weighed in advance), and prepared into a 4 mM stock solution using DMSO. After 24 hours, the culture medium was removed. The drug was diluted with 2% FBS culture medium. 100 μl of the 1× drug solution was added to make the final concentration of the drug to be 20000.00 nM, 5000.00 nM, 1250.00 nM, 312.5 nM, 78.125 nM, 19.53 nM, 4.88 nM, and 1.22 nM. TGFβ1 was present in each well at a final concentration of 4 ng/mL, and diluted with 2% FBS culture medium together with the compounds.
The Glo Lysis Buffer and the Bright-glo luciferase assay system as well as the cells were equilibrated to room temperature. After the cell supernatant was removed, the cells were dissolved evenly by adding 100 μl of the Glo Lysis Buffer to each well with shaking slowly, and lysed at room temperature for 5 minutes. After that, to each well, 100 μl of the Bright-glo luciferase assay system was added to incubate the cells for 5 minute at room temperature with shaking for 2 minutes. Then, 180 μl of the supernatant was transferred to a white bottom 96-well plate to detect chemiluminescence signal. The detection condition was 1 s.
2.3 Data processing: Graphpad Prism 5 software was used to perform nonlinear curve fitting and data analysis to obtain IC50 by fitting.

Row | Structure (SMILES) | IC50 (ALK5) | cardiotoxicity (such as bleeding, functional deterioration, and inflammatory injury) [1] | IC50 [2]
1 | Cc1cccc(-c2nn3c(c2-c2ccnc4ccc(C(N)=O)cc24)CCC3)n1 [Galunisertib] | – | certain cardiotoxicity | –
2 | CC(C)(O)c1cc(Nc2ccc3c(Oc4cn(C5CC5)nc4C4CCOCC4)ccnc3c2)ccn1 [Example 1, 2-(4-((4-((1-cyclopropyl-3-(tetrahydro-2H-pyran-4-yl)-1H-pyrazol-4-yl)oxy)quinolin-7-yl)amino)pyridin-2-yl)propan-2-ol] | 120 nM | – | 200 nM
3 | COc1cc2nccc(Oc3cn(C4CC4)nc3C3CCOCC3)c2cc1Nc1cnn(C2COC2)c1 [Example 19, 4-((1-cyclopropyl-3-(tetrahydro-2H-pyran-4-yl)-1H-pyrazol-4-yl)oxa)-7-methoxy-N-(1-(oxetan-3-yl)-1H-pyrazol-4-yl)quinoline-6-amine] | 10 nM | – | 203 nM

Further molecules by falling IC50 (ALK5), results first:

Row | IC50 (ALK5) | Structure (SMILES) | cardiotoxicity (such as bleeding, functional deterioration, and inflammatory injury) [1] | IC50 [2]
4 | 98 nM | c1cc(Oc2cn(C3CC3)nc2C2CCOCC2)c2ccc(N3CCOCC3)cc2n1 [Example 2, 4-(4-((1-cyclopropyl-3-(tetrahydro-2H-pyran-4-yl)-1H-pyrazol-4-yl)oxy)quinolin-7-yl)morpholine] | – | 150 nM
5 | 66 nM | COc1cc2nccc(Oc3cn(C4CC4)nc3C3CCOCC3)c2cc1C(N)=O [Example 17, 4-((1-cyclopropyl-3-(tetrahydro-2H-pyran-4-yl)-1H-pyrazol-4-yl)oxy)-7-methoxyquinoline-6-carboxamide] | – | 131 nM
6 | 66 nM | FC(F)(F)Cn1cc2c(n1)CN(c1ccc3c(Oc4cn(C5CC5)nc4C4CCOCC4)ccnc3c1)C2 [Example 6, 4-((1-cyclopropyl-3-(tetrahydro-2H-pyran-4-yl)-1H-pyrazol-4-yl)oxy)-7-(2-(2,2,2-trifluoroethyl)-2,6-dihydropyrrolo[3,4-c]pyrazole-5(4H)-yl)quinoline] | – | 165 nM
7 | 5.2 nM | Cn1cc(-c2ccc3c(Oc4cn(C5CC5)nc4C4CCOCC4)ccnc3c2)cn1 [Example 7, 4-((1-cyclopropyl-3-(tetrahydro-2H-pyran-4-yl)-1H-pyrazol-4-yl)oxy)-7-(1-methyl-1H-pyrazol-4-yl)quinoline] | – | 81 nM
8 | 3.2 nM | CS(=O)(=O)c1ccc(-c2ccc3c(Oc4cn(C5CC5)nc4C4CCOCC4)ccnc3c2)cc1 [Example 15, 4-((1-cyclopropyl-3-(tetrahydro-2H-pyran-4-yl)-1H-pyrazol-4-yl)oxy)-7-(4-(methylsulfonyl)phenyl) quinoline] | – | 80 nM
